Experimental data taken from PMC6133161, “Thiazoles with cyclopropyl fragment as antifungal, anticonvulsant, and anti-Toxoplasma gondii agents: synthesis, toxicity evaluation, and molecular docking study” (Medicinal Chemistry Research, 2018).
Converted amounts (≈) assume the structure as drawn. Like-named read-outs stand apart in the source and are kept apart here.

Experiments:
Experiment in all cases: Broth microdilution MIC/MFC, clinical isolate
Format in all cases: cell-based
C. albicans = C. albicans clinical strain
From the text: (§1) In the study of antifungal activity of the compounds 3a–3j, 15 clinical strains of different species of yeasts from Candida species, namely C. albicans, C. dubliniensis C. famata, C. inconspicua, C. krusei, C. tropicalis, C. glabrata, C. lambica, C. kefyr, C. lusitaniae, C. parapsilosis, C. guilliermondii, C. lusitaniae, C. pulcherrima and C. sake were also used. These fungi were isolated by the author (from Department of Pharmaceutical Microbiology of Medical University in Lublin, Poland) from different clinical materials, e.g., from upper respiratory tract of hospitalized patients including cancer patients (i.e., with non-small cell lung cancer or hematological malignancies). Some patients were after pre-operative or post-operative chemotherapy (treated with etoposide or cis-platin given in doses according to the standard procedures), patients with chronic hepatitis C (undergoing peginterferon and ribavirin therapy or without antiviral therapy), patients with diabetes, elderly people, aged of 65 years old or older, staying in close population, such as a care centre and people staying outside the home care. The Ethical Committee of the Medical University of Lublin approved the study protocol (No. KE-0254/75/2011). The isolates were identified by standard diagnostic methods—biochemical microtest, e.g., API 20C AUX, ID 32C, API Candida (bioMérieux) on the basis of assimilation of various substrates. All the used microbial cultures were first subcultured on nutrient agar or Sabouraud agar for bacteria and fungi, respectively. The RPMI 1640 with MOPS (for fungi) were inoculated with the suspensions of fungal species. Microbial suspensions were prepared in sterile saline (0.85% NaCl) with an optical density of 0.5 McFarland standard scale (Wiegand et al. [2008]). Samples containing examined compounds were dissolved in dimethyl sulfoxide (DMSO). Furthermore, fungal suspensions were put onto Petri dishes with solid media containing 2 mg/ml of the tested compounds followed incubation under appropriate conditions. The inhibition of microbial growth was judged by comparison with a control culture prepared without any sample tested. Nystatin (Sigma) was used as a reference antifungal compound. Subsequently MIC minimal inhibitory concentration (MIC) of the compounds was examined by the microdilution broth method, using their two-fold dilutions in RPMI 1640 broth with MOPS prepared in 96-well polystyrene plates. Final concentrations of the compounds ranged from 1000 to 0.0038 µg/ml. Microbial suspensions were prepared in sterile saline with an optical density of 0.5 McFarland standard. Next fungal suspension was added per each well containing broth and various concentrations of the examined compounds. After incubation, the MIC was assessed spectrophotometric as the lowest concentration of the samples showing complete fungal growth inhibition. Appropriate DMSO, growth and sterile controls were carried out. The medium with no tested substances was used as a control (Wiegand et al. [2008]). The minimal fungicidal concentration (MFC) are defined as the lowest concentration of the compounds that is required to kill a particular fungal species. MFC was determined by removing the culture using for MIC determinations from each well and spotting onto appropriate agar medium. The plates were incubated. The lowest compounds concentration with no visible growth observed was assessed as a fungicidal concentration. All the experiments were repeated three times and representative data are presented.
(§2) The MFC/MIC ratios were calculated in order to determine fungicidal (MFC/MIC ≤ 4) or fungistatic (MFC/MIC > 4) effect of the tested compounds (O’Donnell et al. [2010]).

C. dubliniensis = C. dubliniensis clinical strain
From the text: as §1, §2

C. famata = C. famata clinical strain
From the text: as §1, §2

C. glabrata = C. glabrata clinical strain
From the text: as §1, §2

C. guilliermondii = C. guilliermondii clinical strain
From the text: as §1, §2

C. inconspicua = C. inconspicua clinical strain
From the text: as §1, §2

C. kefyr = C. kefyr clinical strain
From the text: as §1, §2

C. krusei = C. krusei clinical strain
From the text: as §1, §2

C. lambica = C. lambica clinical strain
From the text: as §1, §2

C. lusitaniae = C. lusitaniae clinical strain
From the text: as §1, §2

C. parapsilosis = C. parapsilosis clinical strain
From the text: as §1, §2

C. pulcherrima = C. pulcherrima clinical strain
From the text: as §1, §2

C. sake = C. sake clinical strain
From the text: as §1, §2

C. tropicalis = C. tropicalis clinical strain
From the text: as §1, §2

SMILES: O=[N+]([O-])c1ccc(-c2csc(N/N=C/C3CC3)n2)cc1 [Compound 3j, (E)-2-(2-(Cyclopropylmethylene)hydrazinyl)-4-(4-nitrophenyl)thiazole]
- MFC (C. albicans; Candida albicans, read-out: MFC): 0.48 µg/mL (≈ 1.66 µM)
- MIC (C. albicans; Candida albicans, read-out: MIC): 0.24 µg/mL (≈ 0.832 µM)
- MFC (C. dubliniensis; Candida dubliniensis, read-out: MFC): 0.48 µg/mL (≈ 1.66 µM)
- MIC (C. dubliniensis; Candida dubliniensis, read-out: MIC): 0.24 µg/mL (≈ 0.832 µM)
- MFC (C. famata; Debaryomyces hansenii, read-out: MFC): 31.2 µg/mL (≈ 108 µM)
- MIC (C. famata; Debaryomyces hansenii, read-out: MIC): 1.95 µg/mL (≈ 6.76 µM)
- MFC (C. glabrata; Nakaseomyces glabratus, read-out: MFC): > 1000 µg/mL
- MIC (C. glabrata; Nakaseomyces glabratus, read-out: MIC): 125 µg/mL (≈ 434 µM)
- MFC (C. guilliermondii; Meyerozyma guilliermondii, read-out: MFC): 0.98 µg/mL (≈ 3.4 µM)
- MIC (C. guilliermondii; Meyerozyma guilliermondii, read-out: MIC): 0.24 µg/mL (≈ 0.832 µM)
- MFC (C. inconspicua; Pichia inconspicua, read-out: MFC): 1.95 µg/mL (≈ 6.76 µM)
- MIC (C. inconspicua; Pichia inconspicua, read-out: MIC): 0.98 µg/mL (≈ 3.4 µM)
- MFC (C. kefyr; Kluyveromyces marxianus, read-out: MFC): > 1000 µg/mL
- MIC (C. kefyr; Kluyveromyces marxianus, read-out: MIC): 125 µg/mL (≈ 434 µM)
- MFC (C. krusei; Pichia kudriavzevii, read-out: MFC): 0.12 µg/mL (≈ 0.416 µM)
- MIC (C. krusei; Pichia kudriavzevii, read-out: MIC): 0.06 µg/mL (≈ 0.208 µM)
- MFC (C. lambica; Pichia fermentans, read-out: MFC): > 1000 µg/mL
- MIC (C. lambica; Pichia fermentans, read-out: MIC): 250 µg/mL (≈ 867 µM)
- MFC (C. lusitaniae; Clavispora lusitaniae, read-out: MFC): 0.98 µg/mL (≈ 3.4 µM)
- MIC (C. lusitaniae; Clavispora lusitaniae, read-out: MIC): 0.48 µg/mL (≈ 1.66 µM)
- MFC (C. parapsilosis; Lodderomyces parapsilosis, read-out: MFC): 1.95 µg/mL (≈ 6.76 µM)
- MIC (C. parapsilosis; Lodderomyces parapsilosis, read-out: MIC): 0.48 µg/mL (≈ 1.66 µM)
- MFC (C. pulcherrima; read-out: MFC): > 1000 µg/mL
- MIC (C. pulcherrima; read-out: MIC): 7.81 µg/mL (≈ 27.1 µM)
- MFC (C. sake; Fermentozyma sake, read-out: MFC): 0.98 µg/mL (≈ 3.4 µM)
- MIC (C. sake; Fermentozyma sake, read-out: MIC): 0.24 µg/mL (≈ 0.832 µM)
- MFC (C. tropicalis; Candida tropicalis, read-out: MFC): 0.015 µg/mL (≈ 0.052 µM)
- MIC (C. tropicalis; Candida tropicalis, read-out: MIC): 0.015 µg/mL (≈ 0.052 µM)

SMILES: C[C@@H]1[C@H](O)[C@@H](C)/C=C/C=C/CC/C=C/C=C/C=C/C=C/C(O[C@H]2O[C@H](C)[C@@H](O)[C@H](N)[C@@H]2O)CC2O[C@](O)(CC(O)C(O)CCC(O)CC(O)CC(O)CC(=O)O[C@H]1C)CC(O)C2C(=O)O (stereo partly shown) [Nystatin, reference compound]
- MFC (C. albicans): 0.24 µg/mL (≈ 0.259 µM)
- MFC/MIC (C. albicans): 1
- MIC (C. albicans): 0.24 µg/mL (≈ 0.259 µM)
- MFC (C. dubliniensis): 0.12 µg/mL (≈ 0.13 µM)
- MFC/MIC (C. dubliniensis): 1
- MIC (C. dubliniensis): 0.12 µg/mL (≈ 0.13 µM)
- MFC (C. famata): 0.12 µg/mL (≈ 0.13 µM)
- MFC/MIC (C. famata): 2
- MIC (C. famata): 0.06 µg/mL (≈ 0.0648 µM)
- MFC (C. glabrata): 0.48 µg/mL (≈ 0.518 µM)
- MFC/MIC (C. glabrata): 1
- MIC (C. glabrata): 0.48 µg/mL (≈ 0.518 µM)
- MFC (C. guilliermondii): 0.12 µg/mL (≈ 0.13 µM)
- MFC/MIC (C. guilliermondii): 2
- MIC (C. guilliermondii): 0.06 µg/mL (≈ 0.0648 µM)
- MFC (C. inconspicua): 0.48 µg/mL (≈ 0.518 µM)
- MFC/MIC (C. inconspicua): 4
- MIC (C. inconspicua): 0.12 µg/mL (≈ 0.13 µM)
- MFC (C. kefyr): 0.24 µg/mL (≈ 0.259 µM)
- MFC/MIC (C. kefyr): 2
- MIC (C. kefyr): 0.12 µg/mL (≈ 0.13 µM)
- MFC (C. krusei): 0.98 µg/mL (≈ 1.06 µM)
- MFC/MIC (C. krusei): 4
- MIC (C. krusei): 0.24 µg/mL (≈ 0.259 µM)
- MFC (C. lambica): 0.98 µg/mL (≈ 1.06 µM)
- MFC/MIC (C. lambica): 2
- MIC (C. lambica): 0.48 µg/mL (≈ 0.518 µM)
- MFC (C. lusitaniae): 0.24 µg/mL (≈ 0.259 µM)
- MFC/MIC (C. lusitaniae): 2
- MIC (C. lusitaniae): 0.12 µg/mL (≈ 0.13 µM)
- MFC (C. parapsilosis): 0.48 µg/mL (≈ 0.518 µM)
- MFC/MIC (C. parapsilosis): 4
- MIC (C. parapsilosis): 0.12 µg/mL (≈ 0.13 µM)
- MFC (C. pulcherrima): 0.24 µg/mL (≈ 0.259 µM)
- MFC/MIC (C. pulcherrima): 2
- MIC (C. pulcherrima): 0.12 µg/mL (≈ 0.13 µM)
- MFC (C. sake): 0.12 µg/mL (≈ 0.13 µM)
- MFC/MIC (C. sake): 2
- MIC (C. sake): 0.06 µg/mL (≈ 0.0648 µM)
- MFC (C. tropicalis): 0.06 µg/mL (≈ 0.0648 µM)
- MFC/MIC (C. tropicalis): 4
- MIC (C. tropicalis): 0.015 µg/mL (≈ 0.0162 µM)
